Reference: patent publication US20080009418A1, “Selective Inhibitors” (Alchemia LTD., priority 2004, published 2008)

What was measured:
Mouse urotensin (mUR2) = molecular target: T1, Mouse urotensin (mUR2) (Mus musculus, UniProt Q8VIH9); experiment: Radioligand binding, mouse urotensin mUR2 membranes, FlashPlate, [125I]-Urotensin II; conditions: compound at 10 μM, [125I]-Urotensin II
T1 construct: purchased Perkin Elmer Biosignal
T1 sequence (Q8VIH9 1-385): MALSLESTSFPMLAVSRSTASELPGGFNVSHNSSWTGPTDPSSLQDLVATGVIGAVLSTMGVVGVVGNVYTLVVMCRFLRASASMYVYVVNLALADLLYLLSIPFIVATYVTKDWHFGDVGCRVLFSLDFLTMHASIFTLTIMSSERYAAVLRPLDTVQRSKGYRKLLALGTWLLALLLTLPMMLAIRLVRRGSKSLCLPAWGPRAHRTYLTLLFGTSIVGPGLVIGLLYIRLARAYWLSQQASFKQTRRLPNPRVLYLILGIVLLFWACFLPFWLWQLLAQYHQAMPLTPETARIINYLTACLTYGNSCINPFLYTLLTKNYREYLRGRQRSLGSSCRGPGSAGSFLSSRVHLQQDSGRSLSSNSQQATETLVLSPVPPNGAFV
Method in brief: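 Cloned mouse urotensin (mUR2) receptor membranes from Perkin Elmer Biosignal were immobilized in FlashPlate microplates using a proprietary coating. Each well got 19.5 μl buffer, then 0.5 μl of DMSO, reference ligand, or compound. Adding 5 μl of [125I]-Urotensin II, diluted to 5× final concentration in binding buffer, started binding. Plates were sealed with TopSeal-A and incubated 1 hour at room temperature in the dark. Wells were counted for 30 seconds each on a TopCount after a 60-second delay, and percentage inhibition was calculated.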

Human opioid (ORL1) = molecular target: T2, Human opioid (ORL1) (Homo sapiens, UniProt P41146); experiment: Radioligand binding, human opioid ORL1 membranes, FlashPlate, [125I]-Nociceptin; conditions: compound at 10 μM, [125I]-Nociceptin
T2 construct: purchased Perkin Elmer Biosignal
Method in brief: (§1)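 Cloned human receptor membranes were coated onto FlashPlate wells and incubated with radioligand and compound (added from a 0.5 mM DMSO daughter plate) for 1 hour at room temperature in the dark. Scintillation counting gave percent inhibition, with DMSO defining total and reference ligand defining non-specific binding.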

Human melanocortin (MC5) = molecular target: T3, Human melanocortin (MC5) (Homo sapiens, UniProt P33032); experiment: Radioligand binding, human melanocortin MC5 membranes, FlashPlate, [125I]-NDP-αMSH; conditions: compound at 10 μM, [125I]-NDP-αMSH
T3 construct: purchased Perkin Elmer Biosignal
Method in brief: as §1

Human μ-opioid (MOP) = molecular target: T4, Human μ-opioid (MOP) (Homo sapiens, UniProt P35372); experiment: Radioligand binding, human μ-opioid (MOP) membranes, FlashPlate, [3H]-Naloxone; conditions: compound at 10 μM, [3H]-Naloxone
T4 construct: purchased Perkin Elmer Biosignal
Method in brief: as §1

Human δ-opioid (DOP) = molecular target: T5, Human δ-opioid (DOP) (Homo sapiens, UniProt P41143); experiment: Radioligand binding, human δ-opioid (DOP) membranes, FlashPlate, [3H]-Bremazocine; conditions: compound at 10 μM, [3H]-Bremazocine
T5 construct: purchased Perkin Elmer Biosignal
Method in brief: as §1

[1] = molecular target: T6, Human melanin-concentrating hormone (MCH1) (Homo sapiens, UniProt Q99705); experiment: Radioligand binding, human melanin-concentrating hormone MCH1 membranes, FlashPlate, [125I]-S36057; conditions: compound at 10 μM
T6 construct: purchased Perkin Elmer Biosignal
Method in brief: as §1

Human κ-Opioid (KOP) = molecular target: T7, Human κ-Opioid (KOP) (Homo sapiens, UniProt P41145); experiment: Radioligand binding, human κ-opioid (KOP) membranes, filtration, [3H]-Diprenorphine; conditions: compound at 10 μM, [3H]-Diprenorphine
T7 construct: purchased Perkin Elmer Biosignal
Method in brief: (§2)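 Filtration binding on cloned human receptor membranes (1 Unit/well), [125I]-Substance P for NK1 and [3H]-Diprenorphine for KOP, 1 h at room temperature. Filters PEI-presoaked, washed with cold 50 mM Tris-HCl pH 7.4, counted by scintillation; percent inhibition calculated, reference ligand defining non-specific binding.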

Human Melanocortin (MC4) = molecular target: T8, Human Melanocortin (MC4) (Homo sapiens, UniProt P32245); experiment: Radioligand binding, human melanocortin MC4 membranes, FlashPlate, [125I]-NDP-αMSH; conditions: compound at 10 μM, [125I]-NDP-αMSH
T8 construct: purchased Perkin Elmer Biosignal
Method in brief: as §1

[2] = molecular target: T9, Human neuropeptide Y (NPY-Y1) (Homo sapiens, UniProt P25929); experiment: Radioligand binding, human neuropeptide Y NPY-Y1 membranes, FlashPlate, [125I]-PYY; conditions: compound at 10 μM, [125I]-PYY
T9 construct: purchased Perkin Elmer Biosignal
T9 sequence (P25929 1-384): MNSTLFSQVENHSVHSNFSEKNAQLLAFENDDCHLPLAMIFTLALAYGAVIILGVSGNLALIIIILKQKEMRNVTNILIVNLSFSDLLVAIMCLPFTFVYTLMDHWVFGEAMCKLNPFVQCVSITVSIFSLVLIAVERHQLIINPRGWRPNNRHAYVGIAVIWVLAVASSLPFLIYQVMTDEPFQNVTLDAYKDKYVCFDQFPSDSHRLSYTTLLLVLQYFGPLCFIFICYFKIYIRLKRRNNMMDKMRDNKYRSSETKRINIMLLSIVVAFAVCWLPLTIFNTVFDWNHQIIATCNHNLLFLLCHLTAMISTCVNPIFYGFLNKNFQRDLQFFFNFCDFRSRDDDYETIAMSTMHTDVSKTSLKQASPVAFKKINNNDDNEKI
Method in brief: as §1

Human Melanocortin (MC3) = molecular target: T10, Human Melanocortin (MC3) (Homo sapiens, UniProt P41968); experiment: Radioligand binding, human melanocortin MC3 membranes, FlashPlate, [125I]-NDP-αMSH; conditions: compound at 10 μM, [125I]-NDP-αMSH
T10 construct: purchased Perkin Elmer Biosignal
Method in brief: as §1

Human neurokinin (NK1) = molecular target: T11, Human neurokinin (NK1) (Homo sapiens, UniProt P25103); experiment: Radioligand binding, human neurokinin NK1 membranes, filtration, [125I]-Substance P; conditions: compound at 10 μM, [125I]-Substance P
T11 construct: purchased Perkin Elmer Biosignal
Method in brief: as §2

T11 sequence (P25103 whole entry): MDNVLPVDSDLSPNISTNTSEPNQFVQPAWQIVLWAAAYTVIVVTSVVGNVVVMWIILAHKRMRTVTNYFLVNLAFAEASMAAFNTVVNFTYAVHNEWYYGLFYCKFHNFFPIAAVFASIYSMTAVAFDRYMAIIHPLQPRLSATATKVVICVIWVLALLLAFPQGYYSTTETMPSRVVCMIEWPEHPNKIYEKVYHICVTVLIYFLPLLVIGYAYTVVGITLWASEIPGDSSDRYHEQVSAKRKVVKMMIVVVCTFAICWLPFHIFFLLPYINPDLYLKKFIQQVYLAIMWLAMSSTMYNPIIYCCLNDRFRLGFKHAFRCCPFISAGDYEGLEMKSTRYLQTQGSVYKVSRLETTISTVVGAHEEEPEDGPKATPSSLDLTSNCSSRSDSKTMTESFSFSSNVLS
T3 sequence (P33032 whole entry): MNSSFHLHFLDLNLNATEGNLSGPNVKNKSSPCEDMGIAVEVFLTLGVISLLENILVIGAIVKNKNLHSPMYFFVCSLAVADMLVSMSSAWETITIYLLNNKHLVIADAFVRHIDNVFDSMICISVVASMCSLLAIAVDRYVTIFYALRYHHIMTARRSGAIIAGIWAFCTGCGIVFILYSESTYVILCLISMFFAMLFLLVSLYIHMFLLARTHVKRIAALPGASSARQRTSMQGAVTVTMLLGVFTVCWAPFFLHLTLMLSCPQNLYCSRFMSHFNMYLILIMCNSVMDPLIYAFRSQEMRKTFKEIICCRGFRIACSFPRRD
T2 sequence (P41146 whole entry): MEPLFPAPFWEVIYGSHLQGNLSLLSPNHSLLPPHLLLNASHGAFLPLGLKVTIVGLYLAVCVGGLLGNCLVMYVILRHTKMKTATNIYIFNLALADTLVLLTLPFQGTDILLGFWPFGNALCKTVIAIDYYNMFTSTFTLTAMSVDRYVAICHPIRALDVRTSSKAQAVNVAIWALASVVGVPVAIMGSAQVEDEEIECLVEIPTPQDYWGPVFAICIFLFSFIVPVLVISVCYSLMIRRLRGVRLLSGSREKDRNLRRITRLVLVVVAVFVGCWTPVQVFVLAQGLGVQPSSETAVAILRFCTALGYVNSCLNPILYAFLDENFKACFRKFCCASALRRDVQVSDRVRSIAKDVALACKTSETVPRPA
T5 sequence (P41143 whole entry): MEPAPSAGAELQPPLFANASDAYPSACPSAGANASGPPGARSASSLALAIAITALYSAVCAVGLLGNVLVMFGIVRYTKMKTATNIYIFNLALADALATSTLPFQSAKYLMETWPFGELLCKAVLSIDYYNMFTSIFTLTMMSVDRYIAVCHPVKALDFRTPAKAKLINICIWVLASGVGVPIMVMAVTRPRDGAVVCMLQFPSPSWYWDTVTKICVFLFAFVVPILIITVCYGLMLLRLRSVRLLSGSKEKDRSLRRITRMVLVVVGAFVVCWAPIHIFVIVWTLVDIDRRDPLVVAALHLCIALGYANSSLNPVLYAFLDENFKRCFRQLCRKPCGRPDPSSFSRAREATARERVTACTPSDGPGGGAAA
T7 sequence (P41145 whole entry): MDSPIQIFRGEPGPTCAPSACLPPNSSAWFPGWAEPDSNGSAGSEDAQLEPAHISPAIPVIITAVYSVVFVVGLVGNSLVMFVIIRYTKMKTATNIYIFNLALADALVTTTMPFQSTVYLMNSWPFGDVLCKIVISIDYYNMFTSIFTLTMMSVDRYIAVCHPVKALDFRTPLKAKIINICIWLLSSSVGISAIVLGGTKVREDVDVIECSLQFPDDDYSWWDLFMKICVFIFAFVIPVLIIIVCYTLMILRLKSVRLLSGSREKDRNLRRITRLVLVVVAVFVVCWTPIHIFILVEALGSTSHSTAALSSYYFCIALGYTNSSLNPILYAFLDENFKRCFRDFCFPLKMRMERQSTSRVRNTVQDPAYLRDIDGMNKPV
T6 sequence (Q99705 whole entry): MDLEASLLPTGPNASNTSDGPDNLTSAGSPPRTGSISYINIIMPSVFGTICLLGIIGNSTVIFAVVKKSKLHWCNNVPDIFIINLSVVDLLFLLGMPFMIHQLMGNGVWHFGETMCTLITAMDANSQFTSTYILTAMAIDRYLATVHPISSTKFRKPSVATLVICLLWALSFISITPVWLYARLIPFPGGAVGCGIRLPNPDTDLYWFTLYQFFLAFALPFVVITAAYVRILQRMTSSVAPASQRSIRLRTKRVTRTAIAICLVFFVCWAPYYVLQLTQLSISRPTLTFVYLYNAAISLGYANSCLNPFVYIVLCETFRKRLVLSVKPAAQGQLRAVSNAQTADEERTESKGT
T10 sequence (P41968 whole entry): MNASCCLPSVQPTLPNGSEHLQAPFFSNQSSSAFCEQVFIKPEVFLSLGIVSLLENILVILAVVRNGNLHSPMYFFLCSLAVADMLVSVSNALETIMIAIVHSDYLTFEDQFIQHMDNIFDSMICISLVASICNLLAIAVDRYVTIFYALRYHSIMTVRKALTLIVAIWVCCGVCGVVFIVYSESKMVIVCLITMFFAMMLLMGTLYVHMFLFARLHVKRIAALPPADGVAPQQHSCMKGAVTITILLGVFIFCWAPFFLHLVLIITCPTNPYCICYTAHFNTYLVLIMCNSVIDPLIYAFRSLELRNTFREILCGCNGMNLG
T8 sequence (P32245 whole entry): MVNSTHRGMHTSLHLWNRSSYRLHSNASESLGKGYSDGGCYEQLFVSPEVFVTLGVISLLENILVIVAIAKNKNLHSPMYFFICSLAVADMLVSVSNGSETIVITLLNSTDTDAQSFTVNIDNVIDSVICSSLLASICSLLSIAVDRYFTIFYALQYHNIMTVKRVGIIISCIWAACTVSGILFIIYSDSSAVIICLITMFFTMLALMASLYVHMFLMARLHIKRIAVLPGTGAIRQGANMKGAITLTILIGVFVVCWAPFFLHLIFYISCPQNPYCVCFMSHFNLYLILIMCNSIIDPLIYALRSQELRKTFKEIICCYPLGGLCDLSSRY
T4 sequence (P35372 whole entry): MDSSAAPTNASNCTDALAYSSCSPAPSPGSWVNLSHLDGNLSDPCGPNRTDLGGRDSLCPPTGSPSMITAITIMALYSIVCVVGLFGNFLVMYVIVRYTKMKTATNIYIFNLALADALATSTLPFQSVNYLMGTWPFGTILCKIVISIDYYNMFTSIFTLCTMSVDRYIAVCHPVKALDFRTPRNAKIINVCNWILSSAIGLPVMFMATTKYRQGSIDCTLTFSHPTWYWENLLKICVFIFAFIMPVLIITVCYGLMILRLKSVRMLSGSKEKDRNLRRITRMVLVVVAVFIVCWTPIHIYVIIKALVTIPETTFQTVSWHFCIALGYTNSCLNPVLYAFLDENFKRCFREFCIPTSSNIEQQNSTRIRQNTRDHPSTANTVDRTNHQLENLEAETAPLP

Compound: NCCCC(=O)NC1C(OCc2ccc3ccccc3c2)OC(COCc2ccc3ccccc3c2)C(O)C1OCc1ccccc1 (single isomer, unassigned) [compound 465]
- A11: inhibition of radioligand binding (Mouse urotensin (mUR2); mouse mUR2 membranes): − (“−” indicates less than 50% inhibition at 10 μM)
- A10: inhibition of radioligand binding (Human opioid (ORL1); human ORL1 membranes, 10 µM): − (“−” indicates less than 50% inhibition at 10 μM)
- A5: inhibition of radioligand binding (Human melanocortin (MC5); human MC5 membranes): + (“+” indicates greater than 50% inhibition at 10 μM)
- A7: inhibition of radioligand binding (Human μ-opioid (MOP); human MOP membranes): − (“−” indicates less than 50% inhibition at 10 μM)
- A1: inhibition of radioligand binding (Human δ-opioid (DOP); human DOP membranes): − (“−” indicates less than 50% inhibition at 10 μM)
- A6: inhibition of radioligand binding ([1]; [125I]-S36057, human MCH1 membranes, 10 µM): − (“−” indicates less than 50% inhibition at 10 μM)
- A2: inhibition of radioligand binding (Human κ-Opioid (KOP); human KOP membranes): − (“−” indicates less than 50% inhibition at 10 μM)
- A4: inhibition of radioligand binding (Human Melanocortin (MC4); human MC4 membranes, 10 µM): − (“−” indicates less than 50% inhibition at 10 μM)
- A9: inhibition of radioligand binding ([2]; human NPY-Y1 membranes): − (“−” indicates less than 50% inhibition at 10 μM)
- A3: inhibition of radioligand binding (Human Melanocortin (MC3); human MC3 membranes, 10 µM): − (“−” indicates less than 50% inhibition at 10 μM)
- A8: inhibition of radioligand binding (Human neurokinin (NK1); human NK1 membranes): + (“+” indicates greater than 50% inhibition at 10 μM)

Compound: COC[C@H]1OC(OCc2ccc(Cl)cc2)[C@H](NC(=O)CCCNC(=N)N)[C@@H](OCc2cccc(O)c2)[C@@H]1O (stereo partly shown) [compound 139]
- A11 radioligand binding, percentage inhibition (Mouse urotensin (mUR2)): − (“−” indicates less than 50% inhibition at 10 μM)
- A10 radioligand binding, percentage inhibition (Human opioid (ORL1)): − (“−” indicates less than 50% inhibition at 10 μM)
- A5 radioligand binding, percentage inhibition (Human melanocortin (MC5)): − (“−” indicates less than 50% inhibition at 10 μM)
- A7 radioligand binding, percentage inhibition (Human μ-opioid (MOP)): + (“+” indicates greater than 50% inhibition at 10 μM)
- A1 radioligand binding, percentage inhibition (Human δ-opioid (DOP)): − (“−” indicates less than 50% inhibition at 10 μM)
- A6 radioligand binding, percentage inhibition ([1]; [125I]-S36057): + (“+” indicates greater than 50% inhibition at 10 μM)
- A2 radioligand binding, percentage inhibition (Human κ-Opioid (KOP)): − (“−” indicates less than 50% inhibition at 10 μM)
- A4 radioligand binding, percentage inhibition (Human Melanocortin (MC4)): − (“−” indicates less than 50% inhibition at 10 μM)
- A9 radioligand binding, percentage inhibition [2]: − (“−” indicates less than 50% inhibition at 10 μM)
- A3 radioligand binding, percentage inhibition (Human Melanocortin (MC3)): − (“−” indicates less than 50% inhibition at 10 μM)
- A8 radioligand binding, percentage inhibition (Human neurokinin (NK1)): − (“−” indicates less than 50% inhibition at 10 μM)

Compound: CO[C@H]1[C@H](O)[C@@H](COCc2ccc(Cl)cc2)OC(OCc2ccc(Cl)cc2)[C@@H]1NC(=O)CCNC(=N)N (stereo partly shown) [compound 106]
- A11 radioligand binding, percentage inhibition (Mouse urotensin (mUR2)): − (“−” indicates less than 50% inhibition at 10 μM)
- A10 radioligand binding, percentage inhibition (Human opioid (ORL1)): − (“−” indicates less than 50% inhibition at 10 μM)
- A5 radioligand binding, percentage inhibition (Human melanocortin (MC5)): + (“+” indicates greater than 50% inhibition at 10 μM)
- A7 radioligand binding, percentage inhibition (Human μ-opioid (MOP)): − (“−” indicates less than 50% inhibition at 10 μM)
- A1 radioligand binding, percentage inhibition (Human δ-opioid (DOP)): − (“−” indicates less than 50% inhibition at 10 μM)
- A6 radioligand binding, percentage inhibition ([1]; [125I]-S36057): − (“−” indicates less than 50% inhibition at 10 μM)
- A2 radioligand binding, percentage inhibition (Human κ-Opioid (KOP)): − (“−” indicates less than 50% inhibition at 10 μM)
- A4 radioligand binding, percentage inhibition (Human Melanocortin (MC4)): + (“+” indicates greater than 50% inhibition at 10 μM)
- A9 radioligand binding, percentage inhibition [2]: − (“−” indicates less than 50% inhibition at 10 μM)
- A3 radioligand binding, percentage inhibition (Human Melanocortin (MC3)): + (“+” indicates greater than 50% inhibition at 10 μM)
- A8 radioligand binding, percentage inhibition (Human neurokinin (NK1)): + (“+” indicates greater than 50% inhibition at 10 μM)

Compound: CSC1OC(COCc2ccc(Cl)cc2)C(O)C(OCc2ccc3ccccc3c2)C1NC(=O)CCNC(=N)N (stereo not shown) [compound 309]
- A11: inhibition of radioligand binding, mouse urotensin (mUR2) (Mouse urotensin (mUR2)): − (“−” indicates less than 50% inhibition at 10 μM)
- A10: inhibition of radioligand binding, human opioid (ORL1) (Human opioid (ORL1)): − (“−” indicates less than 50% inhibition at 10 μM)
- A5: inhibition of radioligand binding, human melanocortin (MC5) (Human melanocortin (MC5)): + (“+” indicates greater than 50% inhibition at 10 μM)
- A7: inhibition of radioligand binding, human μ-opioid (MOP) (Human μ-opioid (MOP)): − (“−” indicates less than 50% inhibition at 10 μM)
- A1: inhibition of radioligand binding, human δ-opioid (DOP) (Human δ-opioid (DOP)): − (“−” indicates less than 50% inhibition at 10 μM)
- A6: inhibition of radioligand binding, human melanin-concentrating hormone (MCH1) ([1]; [125I]-S36057): − (“−” indicates less than 50% inhibition at 10 μM)
- A2: inhibition of radioligand binding, human κ-opioid (KOP) (Human κ-Opioid (KOP)): − (“−” indicates less than 50% inhibition at 10 μM)
- A4: inhibition of radioligand binding, human melanocortin (MC4) (Human Melanocortin (MC4)): − (“−” indicates less than 50% inhibition at 10 μM)
- A9: inhibition of radioligand binding, human neuropeptide Y (NPY-Y1) [2]: − (“−” indicates less than 50% inhibition at 10 μM)
- A3: inhibition of radioligand binding, human melanocortin (MC3) (Human Melanocortin (MC3)): − (“−” indicates less than 50% inhibition at 10 μM)
- A8: inhibition of radioligand binding, human neurokinin (NK1) (Human neurokinin (NK1)): + (“+” indicates greater than 50% inhibition at 10 μM)

Compound: COCC1OC(OCc2ccc(Cl)cc2)C(NC(=O)CCNC(=N)N)C(OCc2ccc(Cl)cc2)C1O (stereo not shown) [compound 202]
- A11: inhibition of radioligand binding (Mouse urotensin (mUR2); FlashPlate): − (“−” indicates less than 50% inhibition at 10 μM)
- A10: inhibition of radioligand binding (Human opioid (ORL1); FlashPlate): − (“−” indicates less than 50% inhibition at 10 μM)
- A5: inhibition of radioligand binding (Human melanocortin (MC5); FlashPlate): + (“+” indicates greater than 50% inhibition at 10 μM)
- A7: inhibition of radioligand binding (Human μ-opioid (MOP); FlashPlate): − (“−” indicates less than 50% inhibition at 10 μM)
- A1: inhibition of radioligand binding (Human δ-opioid (DOP); FlashPlate): − (“−” indicates less than 50% inhibition at 10 μM)
- A6: inhibition of radioligand binding ([1]; [125I]-S36057, FlashPlate): + (“+” indicates greater than 50% inhibition at 10 μM)
- A2: inhibition of radioligand binding (Human κ-Opioid (KOP); filtration): − (“−” indicates less than 50% inhibition at 10 μM)
- A4: inhibition of radioligand binding (Human Melanocortin (MC4); FlashPlate): + (“+” indicates greater than 50% inhibition at 10 μM)
- A9: inhibition of radioligand binding ([2]; FlashPlate): − (“−” indicates less than 50% inhibition at 10 μM)
- A3: inhibition of radioligand binding (Human Melanocortin (MC3); FlashPlate): + (“+” indicates greater than 50% inhibition at 10 μM)
- A8: inhibition of radioligand binding (Human neurokinin (NK1); filtration): + (“+” indicates greater than 50% inhibition at 10 μM)
